These results are taken from patent US9468607B2, “Ligand directed toroidal nanoparticles for therapy and diagnostic imaging” (WASHINGTON UNIVERSITY, priority 2007, dated 2016).

Read-outs that look alike come from different tables or passages of the source.

The nature of series [1]: Drug loading efficiency by reverse phase HPLC. Format: physicochemical. As to conditions: drug encapsulated in nanoparticles. Here is the method:
Amphiphilic polymer (˜30 mg) was taken up in 3 mL of anhydrous chloroform (Aldrich, Inc.) and gently vortexed for 2 min. The organic phase (with or without the presence of any contrast agent, ˜5 mL of chloroform layer) was dried (anhydrous Na2SO4). Excess of anhydrous chloroform (35 mL) was added to the organic phase and was taken in a 50 mL, long necked test tube. Doxorubicin (0.27 mg/mL) was dissolved in 5 mL of nanopure water (0.2 μM) and was injected followed by gentle vortexing for few minutes. The chloroform was then slowly evaporated under reduced pressure at 45° C. for […], maintaining the pressure at 420-440 mbar. To this, an additional 5 mL of nanopure water (0.2 μM) was injected. The dispersion was sonicated in a Branson ultra sonic bath for ½ h (until a clear dispersion formed) maintaining the bath temperature at 50° C.
Amphiphilic polymer (˜27 mg) was taken up in 3 mL of anhydrous chloroform (Aldrich, Inc.) and gently vortexed for 2 min. The organic phase (with or without the presence of any contrast agent) was dried (anhydrous Na2SO4). […]
Doxorubicin was analyzed by reversed-phase HPLC system with Waters 600S as a controller, Waters 626 pump to deliver mobile phase, Waters 717 auto sampler for injection and Waters 474 scanning fluorescence detector at wavelength ex 470 nm/em 555 nm for detection. […]

The conditions of series [2]: for % Drug remaining: dialysis at 37° C.; for Drug release over 3 days: from nanoparticles, dialysis against 0.9% NaCl, 0.2 mg/ml human serum albumin, 37° C.

Regarding `CC[C@@]1(O)C(=O)OCc2c1cc1n(c2=O)Cc2cc3ccccc3nc2-1` [Camptothecin], the loading efficiency in series [1] is recorded as 99+/−0.1%. Moreover, the “% Drug remaining” value worked out at 93.48% in series [2] (Day 1, in nanoparticles); 87.57% in series [2] (Day 2, in nanoparticles); 83.38% in series [2] (Day 3, in nanoparticles). For the same compound, in series [2], the “Drug release over 3 days” value is 20+/−3.5%.
`COc1cccc2c1C(=O)c1c(O)c3c(c(O)c1C2=O)C[C@@](O)(C(=O)CO)C[C@@H]3O[C@H]1C[C@H](N)[C@H](O)[C@H](C)O1` [Doxorubicin]: the loading efficiency in series [1] is listed as 98+/−0.1%. The “Drug release over 3 days” value in series [2] is on record as 12+/−0.6%.
